# Laboratory results published in patent US7862836B2, “Phosphorus binder for treatment of kidney disease” (Biolink Life Sciences, Inc., priority 2005, dated 2011).
# Read-outs that look alike come from different tables or passages of the source.
# Columns and labels:
# [1] = Stability during storage; assay type: physicochemical
# [2] = Sheikh et al., cited from earlier work; for Observed in vitro Pi Binding, %: pH 6.0
# [3] = Solubility in water of cationic phosphate binders (Table 1)
# [4] = hemodialysis or peritoneal dialysis patients; cited from earlier work
# [5] = cited from earlier work
# [6] = in many patients; cited from earlier work
# [7] = system: parathyroid hormone (PTH) secretion; conditions: maintenance dialysis patients; cited from earlier work
# [8] = cited from earlier work; remark: listed apart in the source
# [9] = cited from earlier work; for Fractional phosphorus absorption / Net phosphorus absorption: mean ± SE
# [10] = 600 mg oral, cited from earlier work
# [11] = mean of triplicate
# Description: The pH of each solution was adjusted to the desired value by the addition of concentrated hydrochloric acid or sodium hydroxide, as appropriate.
# The separation was performed on a Dionex AS11 Cation-Exchange HPLC column integrated with an Agilent Series 1100 HPLC system, and detection of the anionic species was enabled using a Dionex ED50 Electrochemical Detector, operating in Conductivity Mode. Limits of Detection and Quantitation were enhanced through the use of a Dionex Anion Self-Regenerating Suppressor. After assay-specific development and verification of assay performance were completed, the analysis of phosphate and succinate or acetate was performed by sampling the test solution and diluting it, if necessary, to a concentration within the linear range of the Assay. The sample was then injected onto the HPLC column and eluted with a sodium hydroxide gradient. Data were acquired using Agilent ChemStation® software.
# The test or control binder was dissolved in deionized water to a volume of 30 mL. The binder solution was added to the phosphorus solution to give a final volume of 600 mL. For each binder study, the phosphorus solutions were titrated by addition of concentrated HCl or NaOH to two different initial pH levels: 4 and 6. […] This was expressed as percent of the total phosphorus present in the original solution. […]
molecule,measurement,setting,value
O=C([O-])CCCC[C@@H]1CCSS1.O=C([O-])CCCC[C@@H]1CCSS1.[Mg+2] [magnesium (R)-(+)-lipoate],stability during storage,[1],stable during storage
magnesium lipoate,stability during storage,[1],stable during storage
Calcium Gluconate,"Observed in vitro Pi Binding, %",[2],90%
O=C([O-])CC(O)(CC(=O)[O-])C(=O)[O-].O=C([O-])CC(O)(CC(=O)[O-])C(=O)[O-].[Ca+2].[Ca+2].[Ca+2] [Calcium Citrate],"Observed in vitro Pi Binding, %",[2],10%
same,Observed in vitro Pi Binding,[2]; pH 6.5,20% at pH 6.5 (NOTE 2)
[O]=[Mg] [Magnesium Oxide],Hydrophile?,[3],No
choline magnesium trisalicylate,effect on serum Pi levels,[4],no effect
[Mg+2].[OH-].[OH-] [Magnesium Hydroxide],serum Pi levels,"[5]; avg 734 mg elemental Mg/day, 3-5 weeks, control (no binders) 9.0 mg/dL",8.1 mg/dL
same,mean serum Mg levels,"[5]; avg 734 mg elemental Mg/day, dialysate Mg 1.2 to 1.8 mg/dl",4.32 mg/dL
same,patients who developed diarrhea,[5]; nine hemodialysis patients,Four of nine
same,severe hyperkalemia,[6],≤ 8 mEq/L
same,suppressing parathyroid hormone (PTH) secretion,[7],Neither the combination of oral calcium carbonate/magnesium hydroxide nor magnesium hydroxide alone was effective
same,serum Pi levels,"[8]; avg 991 mg elemental Mg daily, dialysate lacking Mg, rose from 4.3",6.1 mg/dL
same,serum Mg level (average),[8]; during Mg(OH)2 treatment,4.3 mg/dL
Magnesium Acetate,fractional absorption of dietary Pi,"[9]; 50 mEq of the salt, reduced from 77%",34%
same,Pi absorption from ingesta,"[9]; 77 mEq per os, 75% with placebo, normal subjects",28%
same,fractional magnesium absorption,[9]; highest magnesium intake,11%
same,fractional magnesium absorption,[9]; lowest magnesium intake,65%
same,Fractional phosphorus absorption,[9]; standard meal + 10.2 mEq MgAc,55.8 ± 2.8 %
same,Net phosphorus absorption,[9]; standard meal + 10.2 mEq MgAc,7.5 ± 0.4 mmol
same,Fractional phosphorus absorption,[9]; standard meal + 19.4 mEq MgAc,47.1 ± 3.4 %
same,Net phosphorus absorption,[9]; standard meal + 19.4 mEq MgAc,6.3 ± 0.5 mmol
same,Fractional phosphorus absorption,[9]; standard meal + 39.0 mEq MgAc,37.0 ± 5.4^|| %
same,Net phosphorus absorption,[9]; standard meal + 39.0 mEq MgAc,4.8 ± 0.7^|| mmol
same,Fractional phosphorus absorption,[9]; standard meal + 77.2 mEq MgAc,28.1 ± 4.8^¶ %
same,Net phosphorus absorption,[9]; standard meal + 77.2 mEq MgAc,3.8 ± 0.6^¶ mmol
"O=C(O)CCCCC1CCSS1 (centres unmarked) [lipoic acid, 1,2-dithiolane-3-pentanoic acid]",safety when ingested by patients with kidney disease,[10],safe
same,"pharmacokinetics, influence of renal function",[10]; severely reduced kidney function or ESRD vs healthy,not influenced by creatinine clearance
same,stability during storage,[1],unstable during storage
O=C(O)CCCC[C@@H]1CCSS1 [(R)-(+)-lipoic acid],stability during storage,[1],even more unstable during storage
O=C([O-])CCC(=O)[O-].[Ca+2] [Calcium Succinate],"Observed in vitro Pi Binding, %",[11]; pH 4.0,59.4%
same,"Observed in vitro Pi Binding, %",[11]; pH 6.0,94.0%
